Where “and” joins values, the source holds several entries; their conditions need not be identical. Equal entries are not always repeated. Values belong to the molecule of their own block, whether it stands above or below them.
Experiment: solvent given as SMILES

emission maximum (in CC#N): 490 nm | emission maximum (in CCCCCC): 459 nm | emission maximum (in CO): 511 nm | emission maximum (in c1ccccc1): 478 nm and 468 nm
SMILES: O=c1oc2c(ccc3ccccc32)nc1-c1ccccc1

emission maximum (in CO): 374 nm
SMILES: O=C(O)CCCc1cc2ccc3cccc4ccc(c1)c2c34

emission maximum (in CCCCCC): 380 nm | emission maximum (in CO): 381 nm | emission maximum (in ClCCl): 382 nm
SMILES: Cc1ccc2ccc3c(C)ccc4ccc1c2c43

emission maximum (in CC#N): 451 nm | emission maximum (in CO): 449 nm | emission maximum (in O): 453 nm
SMILES: CN(C)CCCN1c2ccccc2Sc2ccc(Cl)cc21

emission maximum (in CS(C)=O): 424 nm
SMILES: COc1cc(-c2nc3sc4ccccc4c3s2)cc(OC)c1OC

emission maximum (in CC1CCCO1): 487 nm
SMILES: COc1c(Br)c2cc(=O)oc3ccc4cccc1c4c32

emission maximum (in CC#N): 364 nm
SMILES: O=c1ccc2ccc(C#Cc3ccccc3)cc2o1

emission maximum (in C1CCCCC1): 393 nm | emission maximum (in CC#N): 474 nm and 475 nm | emission maximum (in CC(C)O): 468 nm and 488.03 nm | emission maximum (in CO): 484 nm and 483 nm | emission maximum (in CS(C)=O): 486 nm and 486.82 nm | emission maximum (in ClC(Cl)Cl): 442 nm and 443 nm | emission maximum (in c1ccccc1): 429 nm and 441.38 nm
SMILES: CN(C)c1ccc2nc(-c3ccccc3)sc2c1

emission maximum (in ClCCl): 380 nm
SMILES: COc1cccc2cc(C)c3c4ccccc4n(C)c3c12

emission maximum (in ClC(Cl)Cl): 383 nm
SMILES: CCC[Si](CCC)(CCC)c1cc2ccc3cccc4ccc(c1C(=O)NC(C)(C)C)c2c34

emission maximum (in C1CCCCC1): 390 nm | emission maximum (in CO): 430 nm
SMILES: N#C/C(=C\c1ccc(Cl)cc1)c1nc2ccccc2s1

emission maximum (in ClC(Cl)Cl): 396 nm
SMILES: CC(C)(C)c1ccc2oc3nc4oc5cc(-n6c7ccccc7c7ccccc76)ccc5c4cc3c2c1

emission maximum (in ClCCl): 583 nm
SMILES: Cc1ccccc1N1c2c(sc3ccccc23)Sc2sc3ccccc3c21

emission maximum (in C1CCCCC1): 429 nm | emission maximum (in CC#N): 430 nm
SMILES: C[Si](C)(C)[Si](C)(C)c1c2ccccc2cc2ccccc12

emission maximum (in C1CCOC1): 457 nm
SMILES: COc1ccc(C2=C(c3ccc(OC)cc3)[Si](c3ccccc3)(c3ccccc3)c3ccccc32)cc1

The next lines start with the molecule.

SMILES: CN(C)c1ccc(/C=C/c2cc(/C=C/c3ccc(N(C)C)cc3)ncn2)cc1
emission maximum (in ClCCl): 530 nm

SMILES: CCC(C)[Si](C#Cc1c2nc3c4ccccc4c(=O)c4ccccc4c3nc2c(C#C[Si](C(C)CC)(C(C)CC)C(C)CC)c2nc3c4ccccc4c(=O)c4ccccc4c3nc12)(C(C)CC)C(C)CC (stereo unspecified)
emission maximum (in ClCCl): 571 nm

SMILES: c1ccc2cc(-n3cnc4ccccc43)ccc2c1
emission maximum (in C1CCCCC1): 374 nm | emission maximum (in C1CCOC1): 374 nm | emission maximum (in CC#N): 376 nm | emission maximum (in CCO): 376 nm | emission maximum (in CCOC(C)=O): 375 nm | emission maximum (in CCOCC): 376 nm | emission maximum (in CO): 377 nm | emission maximum (in Cc1ccccc1): 374 nm | emission maximum (in ClC(Cl)Cl): 375 nm

SMILES: CCCCn1c(-c2ccc(-c3nnc(-c4ccccc4)o3)cc2)nc(-c2ccccc2)c1-c1ccccc1
emission maximum (in ClCCl): 441 nm

SMILES: CCCCOC(=O)/C(C#N)=C1\C(=CC2=[N+](C)c3ccccc3C2(C)C)C([O-])=C1C=C1N(C)c2ccccc2C1(C)C
emission maximum (in ClC(Cl)Cl): 708 nm

SMILES: CCCCCCCCC1(CCCCCCCC)c2cc(C=O)ccc2-c2ccc(/C=C/c3ccc(N(c4ccccc4)c4ccccc4)cc3)cc21
emission maximum (in C1CCOC1): 451 nm | emission maximum (in C1COCCO1): 450 nm | emission maximum (in CC#N): 486 nm | emission maximum (in CC(C)=O): 481 nm | emission maximum (in CCCCCC): 442 nm | emission maximum (in CCOC(C)=O): 456 nm | emission maximum (in CN(C)C=O): 490 nm | emission maximum (in CS(C)=O): 485 nm | emission maximum (in Cc1ccccc1): 451 nm | emission maximum (in ClC(Cl)Cl): 459 nm | emission maximum (in ClCCl): 469 nm

SMILES: Cc1ccc2c(c1)c1cc(C)ccc1n2-c1c(C#N)c(-n2c3ccc(C)cc3c3cc(C)ccc32)c(-n2c3ccc(C)cc3c3cc(C)ccc32)c(C#N)c1-n1c2ccc(C)cc2c2cc(C)ccc21
emission maximum (in Cc1ccccc1): 561 nm

SMILES: CCn1c(-c2ccc(-c3ccc4c(c3)C(C)(C)c3ccccc3-4)cc2)c(-c2ccc3ccccc3c2)c(-c2ccc3ccccc3c2)c1-c1ccc(-c2ccc3c(c2)C(C)(C)c2ccccc2-3)cc1
emission maximum (in CCOC(C)=O): 442 nm

SMILES: Cc1c(COC(=O)c2ccc(I)cc2)n2c(OCC(=O)c3ccc(I)cc3)c(C)c(=O)n2c1=O
emission maximum (in CCO): 458 nm

SMILES: CC1(C)c2cc(/C=C/c3nc(/C=C/c4ccc5c(c4)C(C)(C)c4cc(N(c6ccccc6)c6ccccc6)ccc4-5)nc(/C=C/c4ccc5c(c4)C(C)(C)c4cc(N(c6ccccc6)c6ccccc6)ccc4-5)n3)ccc2-c2ccc(N(c3ccccc3)c3ccccc3)cc21
emission maximum (in C1CCOC1): 555 nm

SMILES: F[B-]1(F)n2c(ccc2N2CCOCC2)C(c2ccccc2)=C2C=CC(N3CCOCC3)=[N+]21
emission maximum (in CC#N): 600 nm | emission maximum (in CCCCCC): 595 nm | emission maximum (in CCOC(C)=O): 597 nm | emission maximum (in CO): 594 nm | emission maximum (in ClCCl): 598 nm

SMILES: COc1ccccc1-c1nc2c3ccccc3c3ccccc3c2n1-c1ccc(C)cc1
emission maximum (in Cc1ccccc1): 371 nm

SMILES: CCCCCCOc1ccc(C#Cc2ccc(-c3ccc(-c4ccc(C#Cc5ccc(OCCCCCC)c(OCCCCCC)c5)s4)c4nsnc34)s2)cc1OCCCCCC
emission maximum (in C1CCCCC1): 600 nm | emission maximum (in CCOC(C)=O): 635 nm | emission maximum (in CN(C)C=O): 666 nm | emission maximum (in COc1ccccc1): 636 nm | emission maximum (in Cc1ccccc1): 620 nm | emission maximum (in ClC(Cl)Cl): 648 nm | emission maximum (in ClCCCl): 650 nm | emission maximum (in ClCCl): 649 nm

SMILES: CC1=CC(C)=[N+]2C1=C(c1c3ccccc3c(-c3ccccc3)c3ccccc13)c1c(C)cc(C)n1[B-]2(F)F
emission maximum (in CC#N): 508 nm | emission maximum (in CCCCCC): 514 nm | emission maximum (in CCO): 512 nm | emission maximum (in CN(C)C=O): 515 nm | emission maximum (in Cc1ccccc1): 519 nm | emission maximum (in ClCCl): 515 nm

SMILES: CC1=C2C=CC(C)=[N+]2[B-](F)(F)n2cccc21
emission maximum (in CCCCCC): 504 nm | emission maximum (in CO): 502 nm | emission maximum (in ClCCl): 506 nm

SMILES: COc1ccc(-n2nc(C#N)c(N3CCC(N4CCCCC4)CC3)n2)cc1
emission maximum (in CC#N): 403 nm

SMILES: CCCC1(CCC)c2ccccc2-c2ccc(-c3ccc4c(c3)C(CCC)(CCC)c3cc(-c5ccc6c(c5)C(CCC)(CCC)c5ccccc5-6)ccc3-4)cc21
emission maximum (in C1CCCCC1): 396 nm

SMILES: Cc1cc(C)n2c1C=C1c3ccccc3C(c3c[nH]c4ccccc34)=[N+]1[B-]2(F)F
emission maximum (in C1CCOC1): 606 nm | emission maximum (in CC#N): 602 nm | emission maximum (in CCCCCC): 598 nm | emission maximum (in CO): 603 nm | emission maximum (in Cc1ccccc1): 608 nm | emission maximum (in ClCCl): 606 nm

SMILES: Cc1c(C)c(N2c3ccccc3Oc3ccccc32)c(C)c(C)c1B(c1c(C)c(C)c(N2c3ccccc3Oc3ccccc32)c(C)c1C)c1c(C)c(C)c(N2c3ccccc3Oc3ccccc32)c(C)c1C
emission maximum (in CC(C)(C)c1ccc(-n2c3ccc([Si](c4ccccc4)(c4ccccc4)c4ccccc4)cc3c3cc([Si](c4ccccc4)(c4ccccc4)c4ccccc4)ccc32)cc1): 509 nm

SMILES: O=[N+]([O-])c1ccc([N+]2=Cc3ccc4c5c(ccc4c3O[B-]2(c2ccccc2)c2ccccc2)C=[N+](c2ccc([N+](=O)[O-])cc2)[B-](c2ccccc2)(c2ccccc2)O5)cc1
emission maximum (in Cc1ccccc1): 643 nm | emission maximum (in ClCCl): 642 nm

SMILES: C[C@]12SC(=O)C=C1c1nc(-c3ccccc3O)[nH]c1C1=CC(=O)S[C@@]12C
emission maximum (in CC#N): 407 nm

SMILES: Cc1ccc(-c2c3nc(c(-c4ccc(C)cc4)c4ccc([nH]4)c(-c4ccc(OC(=O)C(C)c5ccc(-c6ccccc6)c(F)c5)cc4)c4nc(c(-c5ccc(C)cc5)c5ccc2[nH]5)C=C4)C=C3)cc1 (stereo unspecified)
emission maximum (in ClCCl): 653 nm

SMILES: Cc1cc(C)c(C2=C3C=CC=[N+]3[B-]3(F)Oc4cc(O)cc5c6ccc(C)cc6c6cc2n3c6c45)c(C)c1 (stereo unspecified)
emission maximum (in ClC(Cl)Cl): 649 nm

SMILES: N#Cc1c(-n2c3ccc(-c4ccccc4)cc3c3cc(-c4ccccc4)ccc32)c(-n2c3ccc(-c4ccccc4)cc3c3cc(-c4ccccc4)ccc32)c(C#N)c(-n2c3ccc(-c4ccccc4)cc3c3cc(-c4ccccc4)ccc32)c1-n1c2ccc(-c3ccccc3)cc2c2cc(-c3ccccc3)ccc21
emission maximum (in Cc1ccccc1): 577 nm

SMILES: COCCOc1cc(C=O)c(OCCOC)cc1C=O
emission maximum (in CC(C)(C)O): 478 nm | emission maximum (in CC(C)CO): 479 nm | emission maximum (in CC(C)O): 479 nm | emission maximum (in CCCCO): 462 nm | emission maximum (in CCCO): 463 nm | emission maximum (in CCO): 464 nm | emission maximum (in CN(C)C=O): 465 nm | emission maximum (in CNC=O): 450 nm | emission maximum (in CO): 466 nm | emission maximum (in NC=O): 456 nm | emission maximum (in O): 495 nm

SMILES: CC(C)(C)c1cc(C#Cc2ccc3c(C#Cc4cc(C(C)(C)C)cc(C(C)(C)C)c4)cc4c5cc(C#Cc6cc(C(C)(C)C)cc(C(C)(C)C)c6)ccc5c(C#Cc5cc(C(C)(C)C)cc(C(C)(C)C)c5)cc4c3c2)cc(C(C)(C)C)c1
emission maximum (in ClCCl): 439 nm

SMILES: F[B-]1(F)Oc2c(-c3cccc4c3O[B-](F)(F)[n+]3c(-c5ccccc5)c(-c5ccccc5)n(-c5ccc(C(F)(F)F)cc5)c3-4)cccc2-c2n(-c3ccc(C(F)(F)F)cc3)c(-c3ccccc3)c(-c3ccccc3)[n+]21
emission maximum (in C1CCOC1): 399 nm

SMILES: N#Cc1cc(-n2c3ccccc3c3ccccc32)nc(-n2c3ccccc3c3ccccc32)n1
emission maximum (in Cc1ccccc1): 471 nm

SMILES: c1ccc(-c2c3ccc(=[N+]4CCCCC4)cc-3oc3cc(N4CCCCC4)ccc23)cc1
emission maximum (in CCO): 588 nm | emission maximum (in ClCCl): 585 nm

SMILES: CON(OC)c1cc2c3cc(-c4c(C)cc(C)cc4C)cc4c5cc(-c6c(C)cc(C)cc6C)cc6c7cc(B(c8c(C)cc(C)cc8C)c8c(C)cc(C)cc8C)cc8c9cc(-c%10c(C)cc(C)cc%10C)cc%10c%11cc(-c%12c(C)cc(C)cc%12C)cc%12c(c1)c2c1c(c43)c(c65)c(c78)c(c9%10)c1c%11%12
emission maximum (in C1CCOC1): 591 nm | emission maximum (in CC(C)=O): 615 nm | emission maximum (in CCCCCC): 490 nm | emission maximum (in Cc1ccccc1): 510 nm | emission maximum (in ClC(Cl)Cl): 545 nm | emission maximum (in ClCCl): 585 nm

SMILES: CCCCC(CC)CN1C(=O)C2=C(c3ccc(-c4ccc(C5=C6C(C)=CC(C)=[N+]6[B-](F)(F)n6c(C)cc(C)c65)cc4)s3)N(CC(CC)CCCC)C(=O)C2=C1c1ccc(-c2ccc(C3=C4C(C)=CC(C)=[N+]4[B-](F)(F)n4c(C)cc(C)c43)cc2)s1 (stereo unspecified)
emission maximum (in Cc1ccccc1): 637 nm

SMILES: CC1=[N+]2C(=C(NC(C)c3ccccc3)c3ccc(C)n3[B-]2(F)F)C=C1c1cc2n(c1)[B-](F)(F)[N+]1=CC=CC1=C2c1c(C)cc(C)cc1C (stereo unspecified)
emission maximum (in C1CCCCC1): 640 nm | emission maximum (in CCOC(C)=O): 700 nm

Reference: the Deep4Chem optical property database
